The target of this test is T1, human mAChR M4 (Homo sapiens, UniProt P08173).
T1 construct: expressed in transfected cells; host or cells: CHO-K1 (ATCC), stably co-expressing chimeric G protein Gqi5
T1 sequence (P08173 1-479): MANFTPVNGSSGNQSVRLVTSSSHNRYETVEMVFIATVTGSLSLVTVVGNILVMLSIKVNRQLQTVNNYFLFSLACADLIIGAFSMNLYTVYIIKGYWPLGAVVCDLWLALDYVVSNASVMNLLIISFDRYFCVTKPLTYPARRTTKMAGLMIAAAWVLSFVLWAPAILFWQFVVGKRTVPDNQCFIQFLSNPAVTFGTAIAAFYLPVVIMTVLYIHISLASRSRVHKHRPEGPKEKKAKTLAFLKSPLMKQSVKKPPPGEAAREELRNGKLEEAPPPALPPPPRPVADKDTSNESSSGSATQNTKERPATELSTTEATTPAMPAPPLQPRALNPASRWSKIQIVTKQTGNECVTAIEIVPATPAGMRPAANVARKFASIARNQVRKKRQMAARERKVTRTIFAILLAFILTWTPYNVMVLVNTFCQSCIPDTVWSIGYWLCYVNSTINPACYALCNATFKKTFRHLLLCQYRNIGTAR
The test can be described thus: mAChR M4 cell-based functional assay (calcium mobilization, EC80 acetylcholine), human M4. The following applies: for Emin: human M4, % ACh maximum at 30 μM. In a few lines:
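CHO-K1 cells stably expressing human M4 with chimeric Gqi5; intracellular calcium rise read on FDSS as fluorescence static ratio at 1 Hz. Compounds in 10-point 1:3 dilution series; IC50 taken as concentration-dependent decrease of the EC80 acetylcholine response, four-parameter logistic fit.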

The mark [1] stands for this setting: Table 10, M4/Gqi5/CHO-K1 cells, decrease of EC80 acetylcholine response.
The mark [2] stands for this setting: Table 9, M4/Gqi5/CHO-K1 cells, decrease of EC80 acetylcholine response.

SMILES strings stand for the structures. Bounds are passed on as bounds.

The record followed here is patent publication US12577234B2, “Antagonists of the muscarinic acetylcholine receptor M4” (Vanderbilt University, priority 2017, dated 2026).

With `Fc1ccc(-c2ccc(N[C@H]3C[C@@H]4CN(CC5CCOCC5)C[C@@H]4C3)nn2)c(Cl)c1` [Compound 203, (3aR,5s,6aS)-N-[6-(2-chloro-4-fluoro-phenyl)pyridazin-3-yl]-2-(tetrahydropyran-4-ylmethyl)-3,3a,4,5,6,6a-hexahydro-1H-cyclopenta[c]pyrrol-5-amine], the “Human M4 Emin” value (Table 10) stood at 5%. The IC50 under setting [1] is 0.00125 µM.
In the case of `Cc1cnn(C)c1-c1ccc(NC[C@H]2C[C@@H]3CN(CC4CCOCC4)C[C@@H]3C2)nn1` [Compound 66, N-[[(3aR,5s,6aS)-2-(tetrahydropyran-4-ylmethyl)-3,3a,4,5,6,6a-hexahydro-1H-cyclopenta[c]pyrrol-5-yl]methyl]-6-(2,4-dimethylpyrazol-3-yl)pyridazin-3-amine], the IC50 under setting [2] is 3.79 µM. The Emin (Table 9) is reported as 17.2%.
The like results for `O=C(Nc1ccc(-c2ccc(F)cc2Cl)nn1)C1C[C@@H]2CN(CC3CC4C=CC3C4)C[C@@H]2C1` (stereo partly drawn) [Compound 75, (3aR,6aS)-2-(5-bicyclo[2.2.1]hept-2-enylmethyl)-N-[6-(2-chloro-4-fluoro-phenyl)pyridazin-3-yl]-3,3a,4,5,6,6a-hexahydro-1H-cyclopenta[c]pyrrole-5-carboxamide] were, in that order, 2.78 µM and 3.25%.
As to `Cc1cccnc1CN1C[C@H]2C[C@@H](Oc3ccc(-c4cn(C)nc4C)nn3)C[C@H]2C1` [Compound 52, (3aR,5r,6aS)-5-[6-(1,3-dimethylpyrazol-4-yl)pyridazin-3-yl]oxy-2-[(3-methyl-2-pyridyl)methyl]-3,3a,4,5,6,6a-hexahydro-1H-cyclopenta[c]pyrrole], the Emin (Table 9) stood at 26.4%. The IC50 (Table 9, μM) is over 10 µM.
Regarding `Cc1nn(C)cc1-c1ccc(N[C@H]2C[C@@H]3CN(CC45CC6CC(CC(C6)C4)C5)C[C@@H]3C2)nn1` [Compound 37, (3aR,5s,6aS)-2-(1-adamantylmethyl)-N-[6-(1,3-dimethylpyrazol-4-yl)pyridazin-3-yl]-3,3a,4,5,6,6a-hexahydro-1H-cyclopenta[c]pyrrol-5-amine], the IC50 under setting [2] is 0.0258 µM. Further, where the note is “Table 9”, the Emin was 5.65%.
The like results for `Cc1nn(C)cc1-c1ccc(O[C@@H]2C[C@@H]3CN(CC4CC5C=CC4C5)C[C@@H]3C2)nn1` (stereo partly drawn) [Compound 47, (3aR,5r,6aS)-2-(5-bicyclo[2.2.1]hept-2-enylmethyl)-5-[6-(1,3-dimethylpyrazol-4-yl)pyridazin-3-yl]oxy-3,3a,4,5,6,6a-hexahydro-1H-cyclopenta[c]pyrrole] were, in that order, 0.0945 µM and 3.08%.
The like results for `CCCC(C)CN1C[C@H]2CC(COc3ccc(-c4c(C)cnn4C)nn3)C[C@H]2C1` (stereo partly drawn) [Compound 82, (3aR,6aS)-5-[[6-(2,4-dimethylpyrazol-3-yl)pyridazin-3-yl]oxymethyl]-2-(2-methylpentyl)-3,3a,4,5,6,6a-hexahydro-1H-cyclopenta[c]pyrrole] were, in that order, 0.538 µM and 4.50%.
For the compound `CC(C)(C)CCN1C[C@H]2C[C@H](Nc3ccc(N4CCOCC4)nn3)C[C@H]2C1` [Compound 143, (3aR,5s,6aS)-2-(3,3-dimethylbutyl)-N-(6-morpholinopyridazin-3-yl)-3,3a,4,5,6,6a-hexahydro-1H-cyclopenta[c]pyrrol-5-amine], the “Human M4 Emin” value (Table 10) turned out to be 6%. Moreover, the half-maximal inhibitory concentration (IC50) under setting [1] was determined as 5.02 µM.
In the case of `Cc1nn(C)cc1-c1ccc(OCC2C[C@@H]3CN(Cc4ccccc4)C[C@@H]3C2)nn1` (stereo partly drawn) [Compound 100, (3aR,6aS)-2-benzyl-5-[[6-(1,3-dimethylpyrazol-4-yl)pyridazin-3-yl]oxymethyl]-3,3a,4,5,6,6a-hexahydro-1H-cyclopenta[c]pyrrole], under setting [2], the concentration for half-maximal inhibition (IC50) worked out at 2.38 µM. In addition, the Emin (Table 9) is given as 5.92%.
Consider `Cc1nn(C)cc1-c1ccc(N[C@H]2C[C@@H]3CN(CCc4ccccc4)C[C@@H]3C2)nn1` [compound 12], for which the IC50 under setting [2] was 0.004 µM.
In the case of `FC1(F)CCN(c2ccc(N[C@H]3C[C@@H]4CN(CC5CCOCC5)C[C@@H]4C3)nn2)CC1` [Compound 190, (3aR,5s,6aS)-N-[6-(4,4-difluoro-1-piperidyl)pyridazin-3-yl]-2-(tetrahydropyran-4-ylmethyl)-3,3a,4,5,6,6a-hexahydro-1H-cyclopenta[c]pyrrol-5-amine], the “Human M4 Emin” value (Table 10) was determined as 4%. Moreover, the IC50 under setting [1] turned out to be 0.00167 µM.
As to `Fc1ccc(Cl)c(-c2ccc(N[C@H]3C[C@@H]4CN(CC5CCCCC5)C[C@@H]4C3)nn2)c1` [Compound 31, (3aR,5s,6aS)-N-[6-(2-chloro-5-fluoro-phenyl)pyridazin-3-yl]-2-(cyclohexylmethyl)-3,3a,4,5,6,6a-hexahydro-1H-cyclopenta[c]pyrrol-5-amine], under setting [2], the 50% inhibitory concentration (IC50) worked out at 0.0086 µM. For the same compound, the Emin (Table 9) worked out at 4.96%.
Regarding `Fc1ccccc1-c1ccc(N[C@H]2C[C@@H]3CN(CC4CCOCC4)C[C@@H]3C2)nn1` [Compound 185, (3aR,5s,6aS)-N-[6-(2-fluorophenyl)pyridazin-3-yl]-2-(tetrahydropyran-4-ylmethyl)-3,3a,4,5,6,6a-hexahydro-1H-cyclopenta[c]pyrrol-5-amine], the “Human M4 Emin” value (Table 10) was determined as 4%. For the same compound, under setting [1], the half-maximal inhibitory concentration (IC50) was 0.000667 µM.
As to `Cc1cnn(C)c1-c1ccc(N[C@H]2C[C@@H]3CN(Cc4ccccc4)C[C@@H]3C2)nn1` [Compound 23, (3aR,5s,6aS)-2-benzyl-N-[6-(2,4-dimethylpyrazol-3-yl)pyridazin-3-yl]-3,3a,4,5,6,6a-hexahydro-1H-cyclopenta[c]pyrrol-5-amine], under setting [2], the IC50 is 0.118 µM. For the same compound, for the setting “Table 9”, the Emin is listed as 3.85%.
For `Cc1cnn(C)c1-c1ccc(NCCC2C[C@@H]3CN(CCC(C)(C)C)C[C@@H]3C2)nn1` (stereo partly drawn) [Compound 120, 6-(1,4-Dimethyl-1H-pyrazol-5-yl)-N-(2-((3aR,6aS)-2-(3,3-dimethylbutyl)octahydrocyclopenta[c]pyrrol-5-yl)ethyl)pyridazin-3-amine], the IC50 under setting [2] is 0.002 µM. Besides, the Emin (Table 9) is listed as 3.48%.
In the case of `Cc1cccnc1CN1C[C@H]2CC(COc3ccc(-c4cc(F)ccc4Cl)nn3)C[C@H]2C1` (stereo partly drawn) [Compound 118, (3aR,6aS)-5-[[6-(2-chloro-5-fluoro-phenyl)pyridazin-3-yl]oxymethyl]-2-[(3-methyl-2-pyridyl)methyl]-3,3a,4,5,6,6a-hexahydro-1H-cyclopenta[c]pyrrole], under setting [2], the IC50 came to 0.694 µM. In addition, the Emin (Table 9) was 2.25%.
Consider `Cc1cnn(C)c1-c1ccc(NCCC2C[C@@H]3CN(Cc4ccccc4F)C[C@@H]3C2)nn1` (stereo partly drawn) [Compound 127, N-[2-[(3aR,6aS)-2-[(2-fluorophenyl)methyl]-3,3a,4,5,6,6a-hexahydro-1H-cyclopenta[c]pyrrol-5-yl]ethyl]-6-(2,4-dimethylpyrazol-3-yl)pyridazin-3-amine], for which, under setting [2], the IC50 was determined as 0.0578 µM. Further, the Emin (Table 9) worked out at 4.93%.
Take `Fc1ccc(F)c(-c2ccc(N[C@H]3C[C@@H]4CN(CC5CCOCC5)C[C@@H]4C3)nn2)c1` [Compound 215, (3aR,5s,6aS)-N-[6-(2,5-difluorophenyl)pyridazin-3-yl]-2-(tetrahydropyran-4-ylmethyl)-3,3a,4,5,6,6a-hexahydro-1H-cyclopenta[c]pyrrol-5-amine]: under “Table 10”, the “Human M4 Emin” value is reported as 6%. Also, the IC50 under setting [1] amounted to 0.0014 µM.
